Assay results from paper PMC9851200, “Multiparameter phenotypic screening for endogenous TFEB and TFE3 translocation identifies novel chemical series modulating lysosome function” (Autophagy, 2022).
Where two headings read alike, the source gives them in different places.

Legend:
Type in all cases: binding
[1] = tested on: kinases (KINOMEscan panel); conditions: NEW KINOMEscan; for KINOMEscan EGFR(L747-E749del, A750P): kinase EGFR(L747-E749del, A750P); for KINOMEscan EGFR(L747-T751del,Sins): kinase EGFR(L747-T751del,Sins); for KINOMEscan FLT3(ITD): kinase FLT3(ITD)
[2] = target: kinases (KINOMEscan panel) (Homo sapiens, UniProt P14616); conditions: INSRR; NEW KINOMEscan
[3] = target: T1, kinases (KINOMEscan panel) (Homo sapiens, UniProt O00329); conditions: NEW KINOMEscan
T1 sequence (O00329 1-1044): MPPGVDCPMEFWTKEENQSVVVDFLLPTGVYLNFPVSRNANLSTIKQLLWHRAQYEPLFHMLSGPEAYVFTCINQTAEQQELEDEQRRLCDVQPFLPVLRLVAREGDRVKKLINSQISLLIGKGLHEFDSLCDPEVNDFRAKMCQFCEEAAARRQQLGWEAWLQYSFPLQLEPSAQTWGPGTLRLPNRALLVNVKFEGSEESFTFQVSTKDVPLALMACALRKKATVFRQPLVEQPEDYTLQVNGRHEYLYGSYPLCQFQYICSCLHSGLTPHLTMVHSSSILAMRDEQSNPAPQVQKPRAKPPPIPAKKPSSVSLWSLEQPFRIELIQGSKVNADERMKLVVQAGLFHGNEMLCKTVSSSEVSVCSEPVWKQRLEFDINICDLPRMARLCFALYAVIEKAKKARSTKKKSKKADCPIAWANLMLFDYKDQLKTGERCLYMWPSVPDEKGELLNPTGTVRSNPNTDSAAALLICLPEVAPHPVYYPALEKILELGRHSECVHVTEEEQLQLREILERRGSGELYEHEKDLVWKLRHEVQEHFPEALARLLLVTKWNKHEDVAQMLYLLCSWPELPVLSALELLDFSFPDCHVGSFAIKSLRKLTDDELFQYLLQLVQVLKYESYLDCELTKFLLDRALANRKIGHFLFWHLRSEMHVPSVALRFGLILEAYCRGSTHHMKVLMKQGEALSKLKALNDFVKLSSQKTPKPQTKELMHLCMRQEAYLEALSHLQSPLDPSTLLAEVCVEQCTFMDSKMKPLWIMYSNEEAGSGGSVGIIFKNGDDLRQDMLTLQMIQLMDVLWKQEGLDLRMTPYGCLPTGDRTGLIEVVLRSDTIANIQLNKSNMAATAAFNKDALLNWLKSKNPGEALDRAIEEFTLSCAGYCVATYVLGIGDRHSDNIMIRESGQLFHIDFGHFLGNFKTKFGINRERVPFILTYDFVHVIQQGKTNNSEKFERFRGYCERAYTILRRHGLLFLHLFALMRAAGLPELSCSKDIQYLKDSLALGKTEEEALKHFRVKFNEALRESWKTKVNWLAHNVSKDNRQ

[4] = target: T2, kinases (KINOMEscan panel) (Homo sapiens, UniProt Q13237); conditions: PRKG2; NEW KINOMEscan
T2 sequence (Q13237 1-762): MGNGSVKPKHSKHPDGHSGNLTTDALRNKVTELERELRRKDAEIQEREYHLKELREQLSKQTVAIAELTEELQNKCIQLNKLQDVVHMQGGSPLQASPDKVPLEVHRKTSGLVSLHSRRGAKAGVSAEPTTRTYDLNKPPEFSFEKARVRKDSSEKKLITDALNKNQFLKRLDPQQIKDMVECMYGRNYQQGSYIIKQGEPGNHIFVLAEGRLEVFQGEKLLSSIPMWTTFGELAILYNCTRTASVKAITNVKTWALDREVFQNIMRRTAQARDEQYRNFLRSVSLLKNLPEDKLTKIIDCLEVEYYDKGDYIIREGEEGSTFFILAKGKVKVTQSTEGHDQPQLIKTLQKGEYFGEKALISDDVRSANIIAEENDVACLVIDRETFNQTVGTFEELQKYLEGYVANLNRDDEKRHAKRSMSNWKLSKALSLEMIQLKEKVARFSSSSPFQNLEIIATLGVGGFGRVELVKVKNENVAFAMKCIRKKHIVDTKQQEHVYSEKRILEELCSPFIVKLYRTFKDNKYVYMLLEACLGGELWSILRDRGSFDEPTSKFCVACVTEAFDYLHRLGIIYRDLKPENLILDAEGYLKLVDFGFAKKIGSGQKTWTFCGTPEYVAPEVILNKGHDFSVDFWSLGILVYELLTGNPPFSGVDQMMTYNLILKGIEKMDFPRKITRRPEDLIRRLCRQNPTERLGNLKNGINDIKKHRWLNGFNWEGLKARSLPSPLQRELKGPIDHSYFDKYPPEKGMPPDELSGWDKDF

[5] = target: kinases (KINOMEscan panel) (Homo sapiens, UniProt Q9UQM7); conditions: kinase CAMK2A; NEW KINOMEscan
[6] = target: kinases (KINOMEscan panel) (Homo sapiens, UniProt P36888, K663Q); conditions: kinase FLT3(K663Q); NEW KINOMEscan
[7] = target: kinases (KINOMEscan panel) (Homo sapiens, UniProt P27448); conditions: MARK3; NEW KINOMEscan
[8] = target: kinases (KINOMEscan panel) (Homo sapiens, UniProt P32298); conditions: kinase GRK4; NEW KINOMEscan
[9] = target: kinases (KINOMEscan panel) (Homo sapiens, UniProt P29597); conditions: NEW KINOMEscan; for KINOMEscan TYK2(JH1domain-catalytic): kinase TYK2(JH1domain-catalytic)
Chain of kinases (KINOMEscan panel) (Homo sapiens, UniProt P29597) (P29597 whole entry): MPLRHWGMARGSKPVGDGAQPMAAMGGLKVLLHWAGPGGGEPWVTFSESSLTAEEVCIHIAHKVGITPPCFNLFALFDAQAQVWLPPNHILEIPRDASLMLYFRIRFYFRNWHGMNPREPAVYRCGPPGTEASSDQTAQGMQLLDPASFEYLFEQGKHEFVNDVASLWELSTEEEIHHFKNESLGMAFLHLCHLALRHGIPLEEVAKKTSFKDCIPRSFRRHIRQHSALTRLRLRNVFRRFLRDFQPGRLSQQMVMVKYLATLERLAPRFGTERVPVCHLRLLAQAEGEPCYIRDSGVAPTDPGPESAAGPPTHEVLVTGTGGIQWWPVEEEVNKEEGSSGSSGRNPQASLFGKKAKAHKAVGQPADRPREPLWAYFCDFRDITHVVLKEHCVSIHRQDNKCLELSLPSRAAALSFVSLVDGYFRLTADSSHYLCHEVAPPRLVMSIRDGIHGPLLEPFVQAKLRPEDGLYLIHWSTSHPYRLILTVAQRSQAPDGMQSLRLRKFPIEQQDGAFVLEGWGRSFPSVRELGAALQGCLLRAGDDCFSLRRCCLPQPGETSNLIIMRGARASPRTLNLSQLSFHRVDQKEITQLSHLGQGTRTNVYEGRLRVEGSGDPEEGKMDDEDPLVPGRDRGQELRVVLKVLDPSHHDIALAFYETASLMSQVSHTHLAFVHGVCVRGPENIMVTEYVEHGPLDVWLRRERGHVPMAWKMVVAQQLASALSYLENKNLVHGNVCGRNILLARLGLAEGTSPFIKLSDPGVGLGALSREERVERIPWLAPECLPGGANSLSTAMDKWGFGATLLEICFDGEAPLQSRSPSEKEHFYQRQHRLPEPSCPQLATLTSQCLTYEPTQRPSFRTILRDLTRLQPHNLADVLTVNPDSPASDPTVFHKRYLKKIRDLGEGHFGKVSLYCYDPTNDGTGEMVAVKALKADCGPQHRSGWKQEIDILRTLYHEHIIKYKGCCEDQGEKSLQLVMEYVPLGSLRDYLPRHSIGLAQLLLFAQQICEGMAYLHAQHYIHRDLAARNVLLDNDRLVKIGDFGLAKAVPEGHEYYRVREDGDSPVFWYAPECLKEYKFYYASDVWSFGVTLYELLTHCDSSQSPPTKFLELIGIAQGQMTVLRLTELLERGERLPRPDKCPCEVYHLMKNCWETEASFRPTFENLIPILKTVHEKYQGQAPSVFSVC

Chain of kinases (KINOMEscan panel) (Homo sapiens, UniProt P27448) (P27448 whole entry): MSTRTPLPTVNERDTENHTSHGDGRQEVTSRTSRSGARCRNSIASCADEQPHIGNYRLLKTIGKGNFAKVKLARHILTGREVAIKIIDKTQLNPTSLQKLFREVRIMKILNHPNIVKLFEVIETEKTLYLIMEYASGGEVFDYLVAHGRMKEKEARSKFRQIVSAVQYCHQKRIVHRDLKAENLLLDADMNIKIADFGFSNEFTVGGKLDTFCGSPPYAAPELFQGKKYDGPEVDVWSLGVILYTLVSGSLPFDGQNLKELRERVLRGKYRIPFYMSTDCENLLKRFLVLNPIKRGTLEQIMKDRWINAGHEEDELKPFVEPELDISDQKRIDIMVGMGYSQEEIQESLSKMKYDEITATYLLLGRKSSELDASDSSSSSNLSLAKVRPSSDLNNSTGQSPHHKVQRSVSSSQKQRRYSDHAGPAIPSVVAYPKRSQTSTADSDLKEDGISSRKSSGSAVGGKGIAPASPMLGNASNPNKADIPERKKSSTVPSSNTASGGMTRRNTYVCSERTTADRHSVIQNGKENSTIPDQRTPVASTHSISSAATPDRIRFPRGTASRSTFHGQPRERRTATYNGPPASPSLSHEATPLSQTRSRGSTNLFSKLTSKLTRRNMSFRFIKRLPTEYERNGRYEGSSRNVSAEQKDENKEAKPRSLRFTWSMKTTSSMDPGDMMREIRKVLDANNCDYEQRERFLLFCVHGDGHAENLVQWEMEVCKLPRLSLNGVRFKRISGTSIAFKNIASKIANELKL
Chain of kinases (KINOMEscan panel) (Homo sapiens, UniProt P32298) (P32298 whole entry): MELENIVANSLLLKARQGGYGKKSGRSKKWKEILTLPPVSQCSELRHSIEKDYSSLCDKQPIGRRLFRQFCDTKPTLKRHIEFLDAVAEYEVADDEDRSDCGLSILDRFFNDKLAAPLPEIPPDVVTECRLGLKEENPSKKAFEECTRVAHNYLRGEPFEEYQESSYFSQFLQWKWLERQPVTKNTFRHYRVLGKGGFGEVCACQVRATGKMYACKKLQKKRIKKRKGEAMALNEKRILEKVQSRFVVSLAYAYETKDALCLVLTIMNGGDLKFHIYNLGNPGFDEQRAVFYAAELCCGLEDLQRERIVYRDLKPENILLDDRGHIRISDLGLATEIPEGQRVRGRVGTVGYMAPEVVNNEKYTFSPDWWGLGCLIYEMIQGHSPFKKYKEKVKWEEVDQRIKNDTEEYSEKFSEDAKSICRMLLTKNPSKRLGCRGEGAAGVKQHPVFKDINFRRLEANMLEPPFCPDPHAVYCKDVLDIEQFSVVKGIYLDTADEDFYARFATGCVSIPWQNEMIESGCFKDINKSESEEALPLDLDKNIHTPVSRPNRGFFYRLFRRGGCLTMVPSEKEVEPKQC
Chain of kinases (KINOMEscan panel) (Homo sapiens, UniProt P14616) (P14616 27-1297): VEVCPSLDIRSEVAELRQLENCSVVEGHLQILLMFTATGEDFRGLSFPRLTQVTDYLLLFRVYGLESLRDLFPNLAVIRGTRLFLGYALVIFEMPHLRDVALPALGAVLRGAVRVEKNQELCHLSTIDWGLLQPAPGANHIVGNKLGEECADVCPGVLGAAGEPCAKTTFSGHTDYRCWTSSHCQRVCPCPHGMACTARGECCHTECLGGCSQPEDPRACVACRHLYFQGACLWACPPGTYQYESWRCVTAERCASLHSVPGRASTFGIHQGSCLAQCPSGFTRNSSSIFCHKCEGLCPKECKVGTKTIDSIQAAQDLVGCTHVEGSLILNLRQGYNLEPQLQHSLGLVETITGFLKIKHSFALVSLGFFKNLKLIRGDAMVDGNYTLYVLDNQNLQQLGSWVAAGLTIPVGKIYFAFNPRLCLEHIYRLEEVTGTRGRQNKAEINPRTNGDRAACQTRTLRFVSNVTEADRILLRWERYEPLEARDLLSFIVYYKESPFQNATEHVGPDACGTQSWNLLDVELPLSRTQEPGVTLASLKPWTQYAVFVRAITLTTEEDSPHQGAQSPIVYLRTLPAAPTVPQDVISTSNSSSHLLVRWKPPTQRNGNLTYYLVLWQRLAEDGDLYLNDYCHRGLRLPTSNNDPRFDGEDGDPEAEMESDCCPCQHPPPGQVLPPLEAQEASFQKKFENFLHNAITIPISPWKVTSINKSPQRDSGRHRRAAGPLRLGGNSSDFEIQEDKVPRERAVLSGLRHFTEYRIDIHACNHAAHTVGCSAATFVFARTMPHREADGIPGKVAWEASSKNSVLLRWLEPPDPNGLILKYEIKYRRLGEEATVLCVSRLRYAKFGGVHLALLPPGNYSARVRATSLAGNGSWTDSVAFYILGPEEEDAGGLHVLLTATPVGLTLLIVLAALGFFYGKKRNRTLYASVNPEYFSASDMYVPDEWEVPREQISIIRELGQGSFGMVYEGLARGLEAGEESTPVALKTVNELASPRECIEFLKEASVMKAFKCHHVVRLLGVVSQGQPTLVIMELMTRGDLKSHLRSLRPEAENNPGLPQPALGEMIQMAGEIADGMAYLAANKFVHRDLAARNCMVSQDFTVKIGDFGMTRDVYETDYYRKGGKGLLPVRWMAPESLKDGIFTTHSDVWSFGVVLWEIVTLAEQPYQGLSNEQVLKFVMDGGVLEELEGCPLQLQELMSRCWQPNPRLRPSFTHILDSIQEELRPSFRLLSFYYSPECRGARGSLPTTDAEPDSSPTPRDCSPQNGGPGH
Chain of kinases (KINOMEscan panel) (Homo sapiens, UniProt Q9UQM7) (Q9UQM7 whole entry): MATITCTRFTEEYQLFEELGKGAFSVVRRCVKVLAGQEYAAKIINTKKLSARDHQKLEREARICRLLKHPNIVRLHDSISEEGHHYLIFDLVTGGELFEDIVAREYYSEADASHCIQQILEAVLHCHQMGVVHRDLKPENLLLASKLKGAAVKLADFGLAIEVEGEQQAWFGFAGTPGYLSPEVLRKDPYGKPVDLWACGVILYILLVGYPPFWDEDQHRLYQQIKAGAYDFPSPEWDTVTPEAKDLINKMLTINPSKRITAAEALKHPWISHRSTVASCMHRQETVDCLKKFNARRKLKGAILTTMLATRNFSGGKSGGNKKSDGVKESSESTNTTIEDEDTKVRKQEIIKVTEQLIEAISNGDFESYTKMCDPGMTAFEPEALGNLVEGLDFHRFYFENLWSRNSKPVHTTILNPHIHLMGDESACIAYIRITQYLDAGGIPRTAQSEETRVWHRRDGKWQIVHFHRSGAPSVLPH

| SMILES | KINOMEscan EGFR(L747-S752del, P753S) [1] | KINOMEscan FLT3(ITD,D835V) [1] | KINOMEscan FLT3(ITD,F691L) [1] | KINOMEscan PRKAA2 [1] | KINOMEscan EGFR(L747-E749del, A750P) [1] | KINOMEscan EGFR(L747-T751del,Sins) [1] | KINOMEscan FLT3(ITD) [1] | KINOMEscan PRKAA2 ([1]; kinase PRKAA2) | KINOMEscan INSRR [2] | KINOMEscan PIK3CD [3] | KINOMEscan PRKG2 [4] | KINOMEscan CAMK2A [5] | KINOMEscan FLT3(K663Q) [6] | KINOMEscan MARK3 [7] | KINOMEscan GRK4 [8] | KINOMEscan TYK2(JH2domain-pseudokinase) [9] | KINOMEscan TYK2(JH1domain-catalytic) [9] |
| --- | --- | --- | --- | --- | --- | --- | --- | --- | --- | --- | --- | --- | --- | --- | --- | --- | --- |
| Cc1cccc(-c2nc(Nc3ccc4nn(C)cc4c3)c3ccccc3n2)n1 [NK167] | 0 | 7 | 33 | 11 | 0 | 0 | 0 | 0 | 0 | 0 | 5 | 0 | 0 | 0 | 0 | 0 | 0 |
| Cc1cccc(-c2nc(N(C)c3ccc4ncsc4c3)c3ccccc3n2)n1 [NK-161] | 19 | 25 | 25 | 20 | 0 | 0 | 4 | 0 | 0 | 2 | 0 | 0 | 0 | 0 | 0 | 12 | 0 |
